Measured values as given in patent publication US20100311805A1, “COMBINATION OF HISTONE DEACETYLASE INHIBITORS AND RADIATION” (NOVARTIS AG, priority 2005, published 2010).

Assays:
H460 cell lines = experiment: Clonogenic analysis of H460 cell lines with LBH589 and 0-6 Gy; assay type: cell-based, human
Protocol: Results. LBH589 sensitizes NSCLC to the cytotoxic effects of ionizing radiation. Clonogenic analysis of H460 cell lines was performed using LBH589 and 0-6 Gy. […] Cells were suspended, counted with a hemocytometer, and plated at specific cell densities. Once attached, cells were treated with LBH589 for 1 hour or 18 hours followed by 0, 2, 4, or 6 Gy. Media was changed after IR and the cells were allowed to proliferate for 10 days. Shown is the average and standard error of the relative fractions of colonies (n=3).

H23 cell line [1] = experiment: Annexin V-FITC/PI flow cytometry analysis of apoptosis, H23; assay type: cell-based, human
Protocol: (§1) LBH589 enhances radiation induced apoptosis. To study the effect of HDAC inhibition by LBH589 on apoptosis three in vitro experiments were performed. FIG. 2 show results from Annexin V-FITC/PI flow cytometry analysis of apoptosis. H23 and H460 cells lines were treated with 25 nM LBH589 for 18 hrs then irradiated with 3 Gy. Twenty (20) hours later, cells were harvested, stained with Annexin-FITC and PI, and analyzed by flow cytometry. Shown is the number of apoptotic cells and standard error (n=3) for each treatment condition. *P<0.05 compared to control.

H460 cell line [2] = experiment: Annexin V-FITC/PI flow cytometry analysis of apoptosis, H460; assay type: cell-based, human
Protocol: as §1

H23 cell line [3] = experiment: Nuclear morphology (pyknotic nuclei) by DAPI staining, H23; assay type: cell-based, human
Protocol: (§2) To confirm the ability of LBH589 to sensitize human lung cancer cell lines to radiation induced apoptosis, nuclear morphology studies were performed. […] DAPI staining of cells treated with LBH589 and IR. Cells were subcultured onto slides and treated with 25 nM LBH589 for 18 hours followed by 3 Gy. Eighteen (18) hours later cells were fixed and stained with DAPI. Shown is the percentage of pyknotic nuclei and standard error (n=3) determined by manual counts from microscopy. *P<0.05 compared to control.

H460 cell line [4] = experiment: Nuclear morphology (pyknotic nuclei) by DAPI staining, H460; assay type: cell-based, human
Protocol: as §2

cleaved caspase3 [5] = experiment: Western immunoblot for cleaved caspase3, H23 whole cell lysates; assay type: cell-based, human
Protocol: (§3) Western Immunoblots. LLC, H450 and H23 cells are serum starved overnight in DMEM/F-12 media (Gibco). Cells are then treated with 10 μM of Compound III for 1 hour and/or irradiated with 3 Gy. Cells are washed twice with PBS and lysis buffer ([…] Tris, 150 mM NaCl, 1 mM EDTA, 1% Triton X-100, 2.5 mM Na PP, 1 mM phenylmethylsulfonyl fluoride, and 1 μg/mL leupeptin) are added. Protein concentration are quantified by the Bio-Rad method. Twenty (20) μg of total protein are loaded into each well and separated by 7% or 10% SDS-PAGE gel, depending on the size of the target protein being investigated. The proteins are transferred onto nitrocellulose membranes (Hybond ECL; Amersham, Arlington Heights, Ill.) and probed with primary antibodies to caspase3, cleaved caspase3, phospho-Akt, Akt, PDGFR α and β (Cell Signaling; 1:1000). Blots are washed and probed with goat anti-rabbit secondary antibody (Sigma; 1:1000). Cleavage of caspase 3 was analyzed to verify the role of apoptosis in cells treated with LBH589 and radiation. Western blot analysis was performed on H23 and H460 whole cell lysates. […] LBH589 induced caspase3 cleavage. H23 and H460 cells were treated with 25 nM LBH589 for 18 hours then irradiated with 3 Gy. Six hours later, protein was extracted, quantified, run in a 12% SDS-polyacrylamide gel, transferred, and probed with antibodies to cleaved caspase3 and actin. […]

cleaved caspase3 [6] = experiment: Western immunoblot for cleaved caspase3, H460 whole cell lysates; assay type: cell-based, human
Protocol: as §3

H460 cells = experiment: Tumor growth delay in H460 xenograft tumor model; assay type: in vivo, nude mice; conditions: 10-fold increase in tumor volume as reference
Protocol: Tumor Volume Assessment. LLC, H450 and H23 cells are implanted into C57BL6 and nude mice, respectively. 106 viable cells suspended in 0.1 mL of cell medium are injected s.c. into the hind-limb. Each group of mice are comprised of 12 mice which are stratified into two groups to create approximately the same mean tumor volume. The mean volume of the tumors in mice at the time of treatment (day 0) with radiation, control, irradiated, LBH589 alone and LBH589 given prior to radiation are approximately 200 mm^3. Irradiated mice are immobilized with 140 μL of ketamine, and the entire body are shielded with lead, except for the tumor-bearing hind limb. A total dose of 21 Gy are administered in seven fractionated doses on days 0-4, 7 and 8. The LBH589 group receive of LBH589 administered p.o. via esophageal injection on days-1 and 6.
Tumor volumes were measured on days 0, 2, 4, 7, 9, 11, 14, 16, 18, 20 and 22 using skin calipers. Tumor volumes were calculated from a formula (a×b×c/2) that are derived from the formula for an ellipsoid (πd3/6). Data were calculated as the percentage of original (day 0) tumor volume and graphed as fractional tumor volume±SD for each treatment group. […]
H460 cells were injected in the hind limb of nude mice and allowed to grow for one week. […] B, shown is the mean tumor growth delay and standard error calculated using a 10-fold increase in tumor volume as reference.

[7] = mouse, in vivo
Protocol: LBH589 enhances tumor growth delay in vivo. H460 cells were injected into the hind limb of mice. After tumor formation the mice were treated with two oral doses of 40 mg LBH589 and/or five 3 Gy fractions over seven days. […] IR alone delayed growth by approximately 4 days (P<0.001).

γ-H2AX foci [8] = experiment: γ-H2AX foci immunostaining, H23; assay type: cell-based, human
Protocol: LBH589 prolongs the duration of radiation induced γ-H2AX foci. Immunostaining was performed to study γ-H2AX foci present at DNA double strand breaks. […] The red staining of γ-H2AX foci and blue staining of the DAPI counterstain are shown. 3 Gy induced γ-H2AX foci as early as 30 minutes following treatment. These foci disappeared by 6 hrs in cell lines treated with IR alone. […] In comparison, LBH589 added 18 hours prior to IR prolonged the duration of γ-H2AX foci for up to 24 hours after IR (42 hours after LBH589 administration). […] LBH589 prolongs duration of γ-H2AX foci in irradiated lung cancer cells. H23 cell line received the indicated treatment of 25 nM LBH589 and/or 3 Gy. Anti-γ-H2AX antibody was used for immunostaining with rhodamine red labeled secondary antibody (red). Cells were counterstained with DAPI (blue). Shown are representative photographs of the H23 cells line (A) at the indicated time points after IR. Arrows point to apoptotic cells. B, shown is the mean and standard error of cells with γ-H2AX nuclear foci. *P<0.05 compared to control.

γ-H2AX foci [9] = experiment: γ-H2AX foci immunostaining, H460; assay type: cell-based, human
HDAC4 [10] = experiment: HDAC4 immunostaining (compartmentalization), H460; assay type: cell-based, human
Protocol: (§4) Immunostaining of HDAC4 was performed on H23 and H460 cell lines to identify the effect of LBH589 on HDAC4 compartmentalization. […] When H460 cells were treated with 3 Gy, HDAC4 localized to the nucleus at 2 hours and minimal HDAC4 was present in the cytoplasm.

HDAC4 [11] = experiment: HDAC4 immunostaining (compartmentalization), H23; assay type: cell-based, human; conditions: LBH589 added prior to IR
Protocol: as §4

[12] = 25 nM LBH589 18 hours prior to 3 Gy, 18 hours later
[13] = 25 nM LBH589 18 hours prior to IR 3 Gy, 6 hours later

For Cc1[nH]c2ccccc2c1CCNCc1ccc(/C=C/C(=O)NO)cc1 [LBH589, N-hydroxy-3-[4-[[[2-(2-methyl-1H-indol-3-yl)-ethyl]-amino]methyl]phenyl]-2E-2-propenamide], the “colony survival compared to untreated cells” value (H460 cell lines; LBH589 1 hour and 18 hours prior to IR (0-6 Gy), 10 days proliferation) was “synergistic decrease in colony survival”, the plating efficiency (H460 cell lines; LBH589 alone for 1 hour, compared to the control) was “no reduced plating efficiency” and the plating efficiency (H460 cell lines; LBH589 alone for 18 hours) was “significantly reduced plating efficiency”. The “number of apoptotic cells” value (H23 cell line [1]; 25 nM LBH589 18 hrs prior to 3 Gy, 20 hours later, control 7%) was 30%, the “number of apoptotic cells” value (H23 cell line [1]; LBH589 alone 25 nM) was “only a minimal increase” and the “number of apoptotic cells” value (H460 cell line [2]; 25 nM LBH589 18 hrs prior to 3 Gy, 20 hours later, control 6%) was 25%. For the same compound, the “number of apoptotic cells” value (H460 cell line [2]; LBH589 alone 25 nM) was “only a minimal increase”, the “percentage of pyknotic nuclei” value (H23 cell line [3]; [12]) was “over 10%” and the apoptotic nuclei (H23 cell line [3]; LBH589 alone) was 4%. For the same compound, the “percentage of pyknotic nuclei” value (H460 cell line [4]; [12]) was “over 10%”, the apoptotic nuclei (H460 cell line [4]; LBH589 alone) was 2% and the “caspase3 cleavage, increase with LBH589 prior to IR” value (cleaved caspase3 [5]; [13]) was “not as prominent”. The caspase3 cleavage (cleaved caspase3 [5]; treatment with 25 nM LBH589) was “increase in caspase3 cleavage was evident”, the caspase3 cleavage (cleaved caspase3 [6]; [13]) was “increased levels of caspase3 cleavage” and the caspase3 cleavage (cleaved caspase3 [6]; treatment with 25 nM LBH589) was “increase in caspase3 cleavage was evident”. For the same compound, the tumor growth delay (H460 cells; LBH589 alone, two oral doses of 40 mg over seven days) was “two”, the tumor growth delay (H460 cells; combined: two oral doses of 40 mg LBH589 and five 3 Gy fractions over seven days) was “approximately 20 days” and the “signs of toxicity as monitored by weight loss and mobility” value [7] was “minimal signs of toxicity”. For the same compound, the “cells with γ-H2AX nuclear foci at 24 hours” value (γ-H2AX foci [8]; 25 nM LBH589 alone) was under 5%, the “residual γ-H2AX foci at 24 hours” value (γ-H2AX foci [8]; 25 nM LBH589 prior to IR 3 Gy) was 60% and the “duration of γ-H2AX foci after IR” value (γ-H2AX foci [8]; LBH589 added 18 hours prior to IR 3 Gy) was “up to 24 hours”. The γ-H2AX foci (γ-H2AX foci [8]; LBH589 alone for 20 hours) was “modest increase in γ-H2AX foci”, the “cells with γ-H2AX nuclear foci at 24 hours” value (γ-H2AX foci [9]; 25 nM LBH589 alone) was under 5% and the “residual γ-H2AX foci at 24 hours” value (γ-H2AX foci [9]; 25 nM LBH589 prior to IR 3 Gy) was 60%. The HDAC4 nuclear localization (HDAC4 [10]; LBH589 added prior to IR 3 Gy) was “markedly limited HDAC4 nuclear localization”, the “HDAC4 staining / localization” value (HDAC4 [10]; LBH589 alone) was “background HDAC4 staining in the cytoplasm and nucleus” and the HDAC4 nuclear localization (HDAC4 [11]) was “A similar effect was seen”.
